Experimental data from the NIST ThermoML archive (doi:10.1016/j.fluid.2017.12.010).

Assay: xn = mol fraction of the nth substance listed
Details: Liquid, Vibrating tube method, x1 = 1

CCCCCCCCCC [decane] + CCCCCCCCCCCC
Details	mass density [kg/m3]
283.55 K, 5000 kPa	742
283.56 K, 3000 kPa	740
283.56 K, 20000 kPa	752
283.56 K, 30000 kPa	758
283.56 K, 40000 kPa	763
283.56 K, 50000 kPa	769
283.56 K, 60000 kPa	774
283.56 K, 70000 kPa	779
283.56 K, 80000 kPa	783
283.56 K, 90000 kPa	788
283.57 K, 1000 kPa	739
283.57 K, 10000 kPa	745
283.58 K, 100 kPa	738
293.48 K, 100 kPa	731
293.48 K, 1000 kPa	731
293.49 K, 5000 kPa	734
293.49 K, 10000 kPa	738
293.49 K, 20000 kPa	745
293.5 K, 30000 kPa	751
293.5 K, 40000 kPa	757
293.5 K, 50000 kPa	763
293.5 K, 100000 kPa	787
293.51 K, 60000 kPa	768
293.51 K, 70000 kPa	773
293.51 K, 80000 kPa	778
293.51 K, 90000 kPa	783
303.42 K, 100 kPa	723
303.42 K, 1000 kPa	724
303.42 K, 10000 kPa	731
303.42 K, 30000 kPa	745
303.42 K, 40000 kPa	751
303.42 K, 70000 kPa	768
303.42 K, 80010 kPa	773
303.42 K, 90000 kPa	777
303.43 K, 5000 kPa	727
303.43 K, 20000 kPa	738
303.43 K, 50000 kPa	757
303.43 K, 60000 kPa	762
303.43 K, 100000 kPa	782
313.35 K, 100 kPa	716
313.35 K, 1000 kPa	717
313.35 K, 5000 kPa	721
313.35 K, 40000 kPa	746
313.36 K, 20000 kPa	732
313.36 K, 50000 kPa	752
313.36 K, 70000 kPa	763
313.36 K, 80000 kPa	768
313.36 K, 90000 kPa	773
313.36 K, 100000 kPa	777
313.37 K, 10000 kPa	725
313.37 K, 30000 kPa	739
313.37 K, 60000 kPa	757
323.24 K, 100 kPa	708
323.24 K, 1000 kPa	709
323.24 K, 100000 kPa	771
323.25 K, 5000 kPa	712
323.25 K, 10000 kPa	717
323.25 K, 20000 kPa	725
